Among the data in patent publication US20120071475A1, “UREA DERIVATIVES HAVING PI3K-INHIBITING ACTIVITY” (SHIONOGI & CO., LTD., priority 2009, published 2012) are IC50, MBI and Ki values, retold here.

Where two headings read alike, the source gives them in different places.

Data set [1] concerns CYP1A2, CYP2C9, CYP2C19, CYP2D6 and CYP3A4 (one value for the five species). Kind of data set: CYP inhibition test, five CYP species together (5CYPs_IC50; pooled human liver microsome). The following applies: human, microsomes. It is filed as in vitro ADME. The procedure, abridged:
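Pooled human liver microsomes (0.2 mg/mL) in 50 mM Hepes were incubated with a substrate cocktail of 0.5 μM ethoxyresorufin, 100 μM tolbutamide, 50 μM S-mephenytoin, 5 μM dextromethorphan and 1 μM terfenadine plus NADPH for 15 min at 37 °C. Compound tested at 1–20 μM (4 points). Metabolites read by fluorescence or LC/MS/MS, and IC50 derived by logistic fit against a DMSO control.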
(Microsomes from liver hold many membrane-bound enzymes, among them those of drug oxidation.)

For the next data set, the target named is T1, CYP3A4 (Homo sapiens, UniProt P08684).
T1 construct: host or cells: E. coli
T1 sequence (P08684 whole entry): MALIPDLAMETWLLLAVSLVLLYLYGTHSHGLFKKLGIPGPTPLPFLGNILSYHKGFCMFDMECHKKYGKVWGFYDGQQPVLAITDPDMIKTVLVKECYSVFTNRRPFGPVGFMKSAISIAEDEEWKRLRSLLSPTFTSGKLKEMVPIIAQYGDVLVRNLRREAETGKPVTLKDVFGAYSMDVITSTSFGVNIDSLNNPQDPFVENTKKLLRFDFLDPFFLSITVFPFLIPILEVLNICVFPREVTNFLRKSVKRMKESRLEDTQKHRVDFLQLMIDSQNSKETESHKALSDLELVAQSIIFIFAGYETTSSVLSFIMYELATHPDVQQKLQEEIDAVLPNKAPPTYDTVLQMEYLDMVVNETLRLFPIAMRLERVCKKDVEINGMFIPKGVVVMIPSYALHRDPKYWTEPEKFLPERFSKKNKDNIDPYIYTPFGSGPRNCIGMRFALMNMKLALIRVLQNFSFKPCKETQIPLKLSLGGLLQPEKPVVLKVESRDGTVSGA
Kind of data set: CYP3A4 fluorescence MBI test. It is filed as in vitro ADME. The following applies: difference in IC50 with 0 or 30 minutes pre-reaction; CYP3A4 expressed in E. coli, substrate 7-BFC. The procedure, abridged: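 E. coli-expressed CYP3A4 debenzylating 5.6 μmol/L 7-BFC to fluorescent 7-HFC (Ex 420/Em 535 nm) in K-Pi pH 7.4 at 25° C, 15 min reaction. NADPH pre-incubation of 0 or 30 min, with 10-fold dilution before reaction. IC50 from 0.625–20 μmol/L (6 points); (+) for an IC50 shift ≥5 μmol/L, (−) for ≤3 μmol/L.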

The target in a further data set is PI3Kγ (Homo sapiens, UniProt P48736). Kind of data set: PI3Kγ inhibitory activity (Ki value). It is filed as biochemical. The procedure, abridged:
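Ki derived from IC50 measured at final compound levels of 50–0.05 μmol/L (HTRF read-out; 40 μmol/L ATP, 10 mmol/L MgCl2, 5 mmol/L DTT), IC50 by logistic or two-point linear fit. ATP Km from Lineweaver-Burk over 0.625–80 μmol/L ATP; Ki = IC50/(1+[ATP]/Km).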

Where [2] appears, read: class symbols, read-out: PI3K γ Ki.

PI3Kγ, sequence (P48736 whole entry, species assumed): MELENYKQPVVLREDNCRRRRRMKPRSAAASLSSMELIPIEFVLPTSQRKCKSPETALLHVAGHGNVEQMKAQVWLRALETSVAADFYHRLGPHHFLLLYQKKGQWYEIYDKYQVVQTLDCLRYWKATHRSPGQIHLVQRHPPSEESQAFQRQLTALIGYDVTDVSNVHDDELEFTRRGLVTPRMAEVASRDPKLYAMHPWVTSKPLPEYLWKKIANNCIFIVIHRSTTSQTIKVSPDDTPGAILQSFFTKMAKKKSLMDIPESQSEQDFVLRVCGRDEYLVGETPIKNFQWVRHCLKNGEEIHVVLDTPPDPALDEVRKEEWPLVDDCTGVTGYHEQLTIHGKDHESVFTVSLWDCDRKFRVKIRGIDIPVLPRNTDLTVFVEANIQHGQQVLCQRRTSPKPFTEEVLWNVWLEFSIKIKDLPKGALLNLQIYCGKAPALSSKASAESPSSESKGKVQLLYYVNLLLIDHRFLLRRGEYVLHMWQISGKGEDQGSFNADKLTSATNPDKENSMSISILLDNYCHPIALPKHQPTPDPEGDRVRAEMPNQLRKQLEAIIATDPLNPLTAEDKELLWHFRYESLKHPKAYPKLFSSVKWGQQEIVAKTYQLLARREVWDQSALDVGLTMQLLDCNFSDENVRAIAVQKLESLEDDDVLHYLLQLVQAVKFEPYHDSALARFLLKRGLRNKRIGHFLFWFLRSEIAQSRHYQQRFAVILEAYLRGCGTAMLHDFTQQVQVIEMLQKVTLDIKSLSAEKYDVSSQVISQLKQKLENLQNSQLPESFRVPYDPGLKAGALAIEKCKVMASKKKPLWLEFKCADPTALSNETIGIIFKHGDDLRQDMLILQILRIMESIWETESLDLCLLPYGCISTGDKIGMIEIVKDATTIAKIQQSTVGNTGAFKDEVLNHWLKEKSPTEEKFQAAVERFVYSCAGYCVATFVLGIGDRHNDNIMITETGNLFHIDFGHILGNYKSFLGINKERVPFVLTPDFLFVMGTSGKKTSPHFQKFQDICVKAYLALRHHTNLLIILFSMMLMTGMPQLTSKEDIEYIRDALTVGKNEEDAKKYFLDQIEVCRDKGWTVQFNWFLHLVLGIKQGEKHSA

For `CC(C)NC(=O)c1ccccc1NC(=O)Nc1nc2c(s1)CN(c1cccc(S(C)(=O)=O)c1)CC2` [Compound I-198], the IC50 at 15 min in data set [1] is above 20000 nM.

Molecule `C[C@@H](CO)NC(=O)c1ccccc1NC(=O)Nc1nc2c(s1)CN(c1cncc(S(C)(=O)=O)c1)CC2` [Compound I-211] displayed an IC50 at 15 min in data set [1] of at least 10000 nM. In addition, at CYP3A4, the MBI result is on record as “(−) (When 3 μmol/L or less, the compound is shown as (−))”.

On to `COc1cc(N2CCc3nc(NC(=O)Nc4ccccc4C(=O)NC(C)C(O)C(F)(F)F)sc3C2)nc(OC)n1` (centres unmarked) [Compound I-139], for which, on CYP3A4, the MBI result is recorded as “(−) (When 3 μmol/L or less, the compound is shown as (−))”.

Take `COc1cncc(-c2ccc3nc(NC(=O)Nc4ccccc4OCCC(C)C)cn3n2)c1` [Compound I-114]: the Ki on PI3Kγ (setting [2]) was at most 300 nM; at PI3Kγ (read-out: PI3Kγ Ki value), 33 nM. Further, in data set [1], the IC50 at 15 min was above 20000 nM. Further, the MBI result on CYP3A4 is reported as “(−) (When 3 μmol/L or less, the compound is shown as (−))”.

`COc1cc(N2CCc3nc(NC(=O)Nc4cn(C)nc4C(=O)NCC(F)(F)F)sc3C2)nc(OC)n1` [Compound I-148]: the Ki on PI3Kγ (setting [2]) was at most 30 nM; at PI3Kγ (read-out: PI3Kγ Ki value), 5.5 nM.

In turn, `COc1cc(N2CCc3nc(NC(=O)Nc4ccccc4C(=O)NCCF)sc3C2)nc(OC)n1` [Compound I-88] displayed an IC50 at 15 min in data set [1] of at least 10000 nM. Further, on CYP3A4, the MBI result is “(−) (When 3 μmol/L or less, the compound is shown as (−))”.

On to `COc1nc(Cl)cc(N2CCc3nc(NC(=O)Nc4ccccc4C(=O)NC4CCCOC4)sc3C2)n1` (centres unmarked) [Compound I-197], for which the Ki at PI3Kγ (setting [2]) was at most 3 nM; at PI3Kγ (read-out: PI3Kγ Ki value), 2.3 nM.

Consider `CC(C)NC(=O)c1ccccc1NC(=O)Nc1nc2c(s1)CN(c1cncc(C(F)(F)F)c1)CC2` [Compound I-131], for which the values for the Ki at PI3Kγ (setting [2]) and on PI3Kγ (read-out: PI3Kγ Ki value) were at most 3 nM and 0.8 nM, respectively. This molecule displayed an IC50 at 15 min in data set [1] of at least 10000 nM. On CYP3A4, the MBI result is on record as “(−) (When 3 μmol/L or less, the compound is shown as (−))”.

For `COc1cc(N2CCc3nc(NC(=O)Nc4ccccc4C(=O)NN4CCN(C)CC4)sc3C2)nc(OC)n1` [Compound I-195], the MBI entry at CYP3A4 is recorded as “(−) (When 3 μmol/L or less, the compound is shown as (−))”.

Take `COc1cc(N2CCc3nc(NC(=O)Nc4ccccc4C(=O)NC(C)C)sc3C2)nc(OC)n1` [Compound I-12]: the values for the Ki at PI3Kγ (setting [2]) and on PI3Kγ (read-out: PI3Kγ Ki value) were at most 30 nM and 9.6 nM, respectively. Further, the MBI entry on CYP3A4 is recorded as “(−) (When 3 μmol/L or less, the compound is shown as (−))”.

With `Cc1nc(NC(=O)Nc2ccccc2C(=O)NC(C)C)sc1-c1ccc(S(C)(=O)=O)c(F)c1` [Compound I-127], the Ki was at most 30 nM on PI3Kγ (setting [2]) and 16 nM on PI3Kγ (read-out: PI3Kγ Ki value).

`COc1nc(Cl)cc(N2CCc3nc(NC(=O)Nc4cnccc4C(=O)NC(C)C)sc3C2)n1` [Compound I-91]: the Ki at PI3Kγ (setting [2]) is at most 3 nM; at PI3Kγ (read-out: PI3Kγ Ki value), 1.4 nM. This molecule also showed an IC50 at 15 min in data set [1] of at least 10000 nM. Besides, the MBI result at CYP3A4 is reported as “(−) (When 3 μmol/L or less, the compound is shown as (−))”.

`COc1cc(N2CCc3nc(NC(=O)Nc4ccccc4C(=O)NC4CCOCC4)sc3C2)nc(OC)n1` [Compound I-203] yielded an IC50 at 15 min in data set [1] above 20000 nM.

As to `COc1cncc(-c2cc(NC(=O)Nc3ccccc3C(=O)NC(C)C)nn2C)c1` [Compound I-226], the Ki on PI3Kγ (setting [2]) was at most 3000 nM; on PI3Kγ (read-out: PI3Kγ Ki value) it was 830 nM. Further, the IC50 at 15 min in data set [1] was at least 10000 nM. Besides, the MBI result at CYP3A4 was “(−) (When 3 μmol/L or less, the compound is shown as (−))”.

In the case of `Cc1nc(NC(=O)Nc2ccccc2C(=O)NC(C)C)sc1-c1csc(S(=O)(=O)N(C)CCN(C)C)c1` [Compound I-191], at PI3Kγ (read-out: PI3Kγ Ki value), the Ki worked out at 300 nM. This molecule displayed an IC50 at 15 min in data set [1] of at least 10000 nM.

The IC50 is the concentration that gives 50% inhibition. Higher therefore signals lower potency. One may read the Ki as a dissociation constant, usually derived from enzyme kinetics or from competition with a known ligand.
